How the values were obtained:
Assay type in all cases: in vivo
[1] = tested on: Taxol induced mechanical allodynia in the rat hind paw; assay: Taxol-Induced Peripheral Neuropathy (von Frey paw withdrawal threshold); settings: 100 mg/kg, p.o. daily for 12 days with Taxol 2 mg/kg i.p.; day 12; not statistically different from baseline (16.42±2.14 g)
Source text: Peripheral neuropatheis are chronic conditions that arise when nerves are damaged by trauma, disease, metabolic insufficiency or by certain drugs and toxins. The sensory disturbances associated with chemotherapeutic agents, such as paclitaxel (Taxol), range from mild tingling to spontaneous burning, typically in the hands and feet. Symptoms become more intense with continued therapy and can lead to weakness, ataxia, numbness and pain. Taxol-induced peripheral neuropathy in rats have therefore been used as a model of peripheral neuropathies in humans.
Male Sprague-Dawley rats (Harlan) were randomly assigned to two treatment groups: vehicle (0.5% hypromellose, p.o.) and Compound #1 (100 mg/kg, p.o). All rats were injected with Taxol (2 mg/kg, i.p.) on days 1, 3, 5 and 7. At the same time, rats received daily oral gavage of vehicle or Compound #1, starting the day of the first Taxol injection and continuing for 12 days.
All animals were acclimated to the allodynia procedure 2-3 days prior to testing allowing the rats to habituate to the testing devices. Rats underwent Von Frey hair testing as a measure of mechanical allodynia at baseline and on days 5 and 12 post-Taxol injection. Tactile sensitivity was measured using calibrated filaments touched to the plantar surfaces of the affected limb. […]

[2] = tested on: formalin-induced inflammatory-mediated pain response (hind-paw licking); assay: Mouse Formalin Assay; settings: i.p.; for acute response, decrease from control: acute phase
Description: The mouse formalin test is an acute and chronic model for testing the ability of a test compound for the treatment of pain.
In the Mouse Formalin Test, 0.5% formalin was injected s.c. into the plantar region of the hind-paw of adult male mice to induce an inflammatory-mediated pain response. Pain was expressed as licking of the injected area in a bi-modal manner—acute and chronic phase. The acute phase occurred immediately and lasted approximately 10-15 min post-injection, representing direct stimulation of pain fibers. Licking behavior resumes approximately 10 mins later (˜20 min post injection) and lasted 10-15 min, representing the chronic phase due to centralized sensitization in dorsal horn neurons and hypothesized to be caused by the release of inflammatory mediators such as cytokines.
Activity in the acute phase of the formalin test is an indicator of acute pain believed to correlate with peripheral pain pathways.

[3] = tested on: mechanical (tactile) allodynia after L5 nerve ligation; assay: Rat Chung Model of Neuropathic Pain (L5 nerve ligation, von Frey mechanical allodynia)
Description: The rat Chung model is an assay used in determining whether a compound is useful for the treatment of neuropathic pain (Kim and Chung, 1994; Chaplan et al., 1994).
In this study, male Sprague Dawley rats (145-165 g; Harlan) were anesthetized and the L5 nerve was isolated and ligated with silk suture material resulting in mechanical allodynia. Two weeks post-ligation, rats were dosed acutely with vehicle (an aqueous solution of 0.5% methylcellulose) or Compound #1 at 15, 30, 60, 120 or 240 mg/kg, p.o. Mechanical (tactile) allodynia was quantified by recording the pressure at which the affected paw withdrew from a graded stimulus (von Frey hairs) at 30 min, 1, 2 and 4 h post-dosing. Data were normalized and results are presented as % MPE (maximum […] effect) of the drug.

[4] = 107 mg/kg, 15 min prior to formalin injection, p<0.01

NS(=O)(=O)NCc1csc2ccccc12 [Compound #1, N-(benzo[b]thien-3-ylmethyl)-sulfamide]
withdrawal force [1]: 14.32 ± 5.45 g
acute response, decrease from control ([2]; 53 mg/kg, p<0.05): 32%
chronic phase response, decrease from control ([2]; 53 mg/kg, p<0.01): 67%
acute response, decrease from control [2, 4]: 52%
chronic phase response, decrease from control [2, 4]: 88%
improvement in the allodynic response (% MPE) ([3]; 240 mg/kg, p.o., at 1 h post-dosing): 80%
ED50 ([3]; Rattus norvegicus, po, at 1 h post-dosing, n=5 rats/dose, read-out: acute oral ED50): 169 mg/kg
time of peak efficacy post-dosing ([3]; p.o., efficacy observed at 30 min, gone by 4 h): 1 h

— patent publication US20070191452A1, “USE OF BENZO-HETEROARYL SULFAMIDE DERIVATIVES FOR THE TREATMENT OF PAIN” (priority 2006, published 2007)
